Assay results: patent US10071976B2, “Small molecule fatty acid synthase inhibitors” (Sanford Burnham Prebys Medical Discovery Institute, priority 2014, dated 2018)
“And” between values parts separate entries of the source, which are not always exact repeats. Equal values may be shown once. Read-outs that look alike come from different tables or passages of the source.

What was measured:
[1] = Aqueous solubility in pION's buffer; assay type: physicochemical
[2] = Plasma protein binding, human; assay type: in vitro ADME
From the text: (§1) Plasma protein binding was a measure of a drug's efficiency to bind to the proteins within blood plasma. The less bound a drug is, the more efficiently it can traverse cell membranes or diffuse. […] In contrast, drugs that remain largely unbound in plasma are generally available for distribution to other organs and tissues.

[3] = test system: other serine hydrolases in the lysate; assay: Competition with activity-based probe FP-PEG-TAMRA in PC-3 whole cell lysate: other serine hydrolases; assay type: binding, human; details: PC-3 lysate, 20 μM final, pH 7.8
Protocol: Studies were conducted to determine the selectivity of compound 16 for FASN over other human thioesterases. The ability of the compounds to bind the FASN holoenzyme was tested by assessing their ability to compete for the binding of an activity-based probe that covalently attaches to the active site of the FASN thioesterase. Thioesterases are members of the serine hydrolase family, which also includes a number of other types of enzymes including proteases, dipeptidyl peptidases, epoxide hydrolases, etc. To help assess the selectivity of compound 16, an activity-based probe polyethyleneglycol-6-carboxytetramethyl-rhodamine (FP-PEG-TAMRA) that binds covalently to the catalytic serine of all serine hydrolases was used. These studies were done by assessing the ability of compound 16 to compete for the binding of the activity-based probe in whole cell lysates. Several analogs of compound 16 were tested in this assay using lysates of the prostate tumor line (PC3), which expresses FASN, along with numerous other serine hydrolases. The PC-3 lysate was incubated with 8 different FASN inhibitors, including compounds 1, 16 and 97. Then the activity-based probe (FP-PEG-TAMRA) was added to each sample to label the serine hydrolases in the lysate.

[4] = Hepatic microsome stability, mouse; assay type: in vitro ADME
From the text: (§2) The microsomal stability assay is commonly used to rank compounds according to their metabolic stability. This assay addresses the pharmacologic question of how long the parent compound will remain circulating in plasma within the body.

[5] = Aqueous solubility in 1x PBS, pH 7.4; assay type: physicochemical; details: pH 7.4, aqueous buffer
[6] = Chemical stability in 1x PBS; assay type: physicochemical
[7] = test system: prostate cancer PC-3 cells; assay: De novo palmitate synthesis from 13C-glucose in whole cells (GC-MS); assay type: cell-based
Protocol: The ability of compounds to block biosynthesis of palmitate in whole cells (prostate cancer PC-3 cells) was measured by feeding cells isotopically labeled glucose (^13C-glucose) and measuring the incorporation of ^13C into palmitate by GC-MS.
Prostate cancer PC-3 cell were incubated with 20 μM of FASN inhibitors and labeled with [U-13C]-glucose for 24 h, pH 7.8. The incorporation of ^13C into palmitate from labeled glucose was determined by extracting fatty acids and resolving them by GC-MS. The mass distributions for fatty acid methyl esters for C16:0 (palmitate) were corrected for isotope natural abundance, and the corrected isotope patterns were used to calculate the labeling of acetyl-CoA in palmitate based on a binomial probability distribution of the incorporation of labeled acetyl units into the fatty acid chain.

PAMPA permeability = assay type: in vitro ADME; details: for Papp: PAMPA, read-out: PAMPA Permeability, Pe
Protocol: The PAMPA (Parallel Artificial Membrane Permeability Assay) assay was used as an in vitro model of passive, transcellular permeability. An artificial membrane immobilized on a filter was placed between a donor and acceptor compartment. At the start of the test, drug was introduced in the donor compartment. Following the permeation period, the concentration of drug in the donor and acceptor compartments was measured using UV spectroscopy.

[8] = Plasma protein binding, mouse; assay type: in vitro ADME; details: read-out: Plasma Protein Binding (% Bound) (converted)
From the text: as §1

ACOT4 = target: T1, ACOT4 (Homo sapiens, UniProt Q8N9L9); assay: FP-PEG-TAMRA labeling of recombinant ACOT4; assay type: binding; details: recombinant enzyme, 20 μM final, pH 7.8
T1 sequence (Q8N9L9 1-421): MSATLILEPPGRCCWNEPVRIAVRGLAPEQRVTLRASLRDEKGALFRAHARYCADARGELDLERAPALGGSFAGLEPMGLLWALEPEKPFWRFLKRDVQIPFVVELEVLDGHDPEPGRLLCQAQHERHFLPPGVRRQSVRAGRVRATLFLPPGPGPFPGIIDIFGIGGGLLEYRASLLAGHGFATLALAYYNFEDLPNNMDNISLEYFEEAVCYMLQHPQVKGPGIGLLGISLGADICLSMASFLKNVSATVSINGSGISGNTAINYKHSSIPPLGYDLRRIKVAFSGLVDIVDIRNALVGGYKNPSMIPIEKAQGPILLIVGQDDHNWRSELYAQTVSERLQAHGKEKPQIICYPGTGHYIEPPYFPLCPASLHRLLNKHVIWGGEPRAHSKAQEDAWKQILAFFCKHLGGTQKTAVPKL
Protocol: Additionally, studies were performed to test the selectivity of Compounds 1, 16, 22, and 37 for the FASN thioesterase over its most closely related human homolog, the enzyme called ACOT4 (see FIG. 3). Both proteins were mixed and pretreated with the compound (20 μM final, pH 7.8) before addition of the fluorescent activity probe FP-PEG-TAMRA. Respective fluorescence of the bands was detected on a Hitachi flatbed scanner and a greyscale version used for quantitative analysis using ImageJ. Recombinant forms of each enzyme were incubated with compound 16, compound 1, compound 37, and compound 22. FP-TAMRA was included in this mixture to label the active site of the FASN thioesterase and ACOT4. […] These findings further attest to the high degree of selectivity of compounds 1, 16, 37 and 22 for the FASN thioesterase.

[9] = Hepatic microsome stability, human; assay type: in vitro ADME
From the text: as §2

CCC(CC)C(=O)Nc1nc(-c2ccc(S(=O)(=O)N3CCOCC3)cc2)cs1 [Compound 16, 2-Ethyl-N-(4-(4-(morpholinosulfonyl)phenyl)thiazol-2-yl)butanamide]
solubility ([1]; aqueous buffer, pH 5.0): 0.19 µg/mL and 0.45 µM
solubility ([1]; pH 6.2, aqueous buffer): 0.06 µg/mL and 0.14 µM
solubility ([1]; pH 7.4, aqueous buffer): 0.13 µg/mL and 0.31 µM
fraction unbound at 1 μM ([2]; plasma, Human, 1 μM, read-out: Plasma Protein Binding (% Bound) (converted)): 0.034
fraction unbound at 10 μM ([2]; plasma, Human, 10 μM, read-out: Plasma Protein Binding (% Bound) (converted)): 0.0253
plasma protein binding ([2]; species not given): highly plasma protein bound
competition for activity based labeling of other serine hydrolases [3]: no competition
Hepatic Microsome Stability (% Remaining at 1 hr) ([4]; Mouse, 1 hr): 6.37%
liver microsome stability ([4]; mouse liver microsomes): poor stability
solubility [5]: 0.02 µg/mL and 0.05 µM
Chemical Stability in 1x PBS pH 7.4 (% remaining after 48 hrs) ([6]; 1x PBS pH 7.4, 48 hrs): 100/100%
Chemical Stability in 1x PBS pH 7.4 with 50% ACN (% remaining after 48 hrs) ([6]; with 50% ACN, 48 hrs): 100/100%
inhibition of palmitate synthesis in whole cells [7]: inhibitory activity
de novo palmitate synthesis/DMSO (%) ([7]; 20 μM, [U-13C]-glucose 24 h, pH 7.8, relative to DMSO control): 50%
Papp (PAMPA permeability; Donor pH 5.0, Acceptor pH 7.4): 914 ×10⁻⁶ cm/s
Papp (PAMPA permeability; Donor pH 6.2, Acceptor pH 7.4): 961 ×10⁻⁶ cm/s
Papp (PAMPA permeability; pH 7.4, Donor pH 7.4, Acceptor pH 7.4): 653 ×10⁻⁶ cm/s
PAMPA permeability (PAMPA permeability; across a range of pH of the donor compartment): very good permeability
fraction unbound at 1 μM ([8]; 1 μM): 0.0381
fraction unbound at 10 μM ([8]; 10 μM): 0.0337
activity labeling of ACOT4 (ACOT4): without effect
Hepatic Microsome Stability (% Remaining at 1 hr) ([9]; Human, 1 hr): 4.93%
liver microsome stability ([9]; human liver microsomes): poor stability
